A short description of assay [1]: Inhibition of TEL fused BLK (unknown origin) transformed in mouse BaF3 cells.
Assay [2] is described as follows: Inhibition of TEL fused BMX (unknown origin) transformed in mouse BaF3 cells.

SMILES strings stand for the structures.

Turning to `C=CC(=O)Nc1cccc(Oc2nc(Nc3ccc(N4CCN(C)CC4)cc3)ncc2Cl)c1`, the figures for the half-inhibitory concentration (IC50) in assay [1] and in assay [2] were 20 nM and 0.4 nM, respectively.

For the origin of these results see BindingDB's records for PubMed 20033049 (Institute).
